Values of other authors as cited in US20240197589A1, “ORAL CARE COMPOSITIONS COMPRISING GERANYLGERANIOL AND METHODS OF USE THEREOF” (AMERICAN RIVER NUTRITION, LLC, priority 2022, published 2024).

Columns and labels:
Staphylococcus aureus = settings: S. aureus
[1] = animals treated with both bisphosphonates and GG
[2] = test system: Mycobacterium tuberculosis; settings: M. tuberculosis, at 6.25 ug/ml
[3] = in combination with amoxicillin, 200 mg two times per day for 5 days, following third molar removal

Compound: CC(C)=CCC/C(C)=C/CC/C(C)=C/CC/C(C)=C/CO [GG, geranylgeraniol]
- concentration for optimum bactericidal effect (Staphylococcus aureus): 0.15 to 1.25 µg/mL
- decrease of viable bacterial cell count (Staphylococcus aureus; 0.15-1.25 ug/ml, within two hours): decreased viable bacterial cell count by a factor of two
- improved gum and extracted socket healing [1]: 45-67%
- inhibition of the bacterium [2]: 96%

Compound: Bromelain
- dilution exerting antibacterial effects against Porphyromonas gingivalis (Porphyromonas gingivalis): 4.15 mg/mL
- study subjects with reduced swelling and pain [3]: up to 70%
- dilution effective against Streptococcus mutans (Streptococcus mutans): 2 mg/mL
